# In US7919620B2, “Agent for suppressing blood pressure elevation” (Coral Biotech Kabushiki Kaisha, priority 2005, dated 2011):
# Marks after values point to notes of the source that are not given here.
# Assays:
# Format in all cases: in vivo, rat
# [1] = system: spontaneously hypertensive rats (SHRs); test: Animal Experiment 2 (Example 2): systolic pressure of SHRs given sea water- or Si-added feed; details: for Systolic pressure of SHRs: mean ± SD
# Description: (§1) Twenty-five 7-week-old male SHRs were divided into 5 groups of 5 animals. Four times as much Si as used in Example 1 was added to the feed given to the rats. Otherwise, the animals were tested under the same conditions as in Example 1. Two types of sea water were added to the powder feed: sea water subjected to NaCl-removing treatment by electrical dialysis and ion-exchanged water. The semi-solid feed containing 1.4 wt % NaCl and 40% moisture was prepared by adding the sea water to powdered feed.
# [2] = Animal Experiment 2 (Example 2): NaCl, water and feed consumption and body weight of SHRs
# Description: as §1
# [3] = Animal Experiment 1 (Example 1): NaCl, water and feed consumption and body weight of SHRs
# Description: (§2) Seven-week-old male SHRs were divided into 5 groups of 6 to 7 animals. Following 1 week of acclimatization, each group was allowed to feed freely on semi-solid feed for 7 to 8 weeks. The feed given was prepared by adding 40 wt % moisture to powdered feed. To ensure that each SHR would develop hypertension, 1 wt % salt was added to the feed. The animals were allowed to freely drink tap water. Over the course of the test period, each animal was weighed and the feed consumption was measured. Blood pressure was taken from the tail vein every four days between 4 PM and 6 PM. After a 12-hour fasting period, the animals were sacrificed. Serum, liver, and kidney were weighed and subjected to analyses.
# (§3) The sea water added was NaCl-removed deep sea water (DW) or NaCl-removed surface sea water (SW) prepared by dialyzation through an electrodialyzer (Asahi Kasei) until the conductivity of monovalent ions was decreased to 10 mS/cm.
# (§4) The Si concentration in the semi-solid feed containing 40% moisture is defined as the amount of Si contained in 1 kg of the feed.
# [4] = system: spontaneously hypertensive rats (SHRs); test: Animal Experiment 1 (Example 1): systolic pressure of SHRs given sea water- or Si-added feed; details: for Systolic pressure of SHRs: mean ± SD
# Source text: In the following examples, spontaneously hypertensive rats (SHRs) were used as experimental animals. The antihypertensive effect of deep sea water was examined by comparison with tap water and surface sea water. […] The samples of the sea water used in the examples were collected by the Deep Seawater Laboratory of Okinawa at a point 3 kilometers off the coast of Kumejima island at depths of 612 m (deep sea water) and 15 m (surface sea water).
# as §2, §3, §4
compound,measurement,setting,value
"O.O.O.O.O.O.O.O.O.O=[Si]([O-])[O-].[Na+].[Na+] [Si, sodium metasilicate nonahydrate]",Systolic pressure of SHRs,[1]; age 7 W,157 ± 8 mmHg
same,Systolic pressure of SHRs,[1]; age 8 W,166 ± 12 mmHg
same,Systolic pressure of SHRs,[1]; age 9 W,168 ± 4 mmHg
same,Systolic pressure of SHRs,[1]; age 10 W,167 ± 7 mmHg
same,Systolic pressure of SHRs,[1]; age 11 W,172 ± 7 mmHg
same,Systolic pressure of SHRs,[1]; age 12 W,179 ± 4 mmHg
same,Systolic pressure of SHRs,[1]; age 13 W,179 ± 1*^1 mmHg
same,Systolic pressure of SHRs,[1]; age 14 W,181 ± 3*^1 mmHg
same,Antihypertensive effect (difference in systolic pressure from the control),"[1]; end of test period (14 weeks old), p<0.05",approximately 10 mmHg
same,Body weight,[2]; 8 week,200.3 ± 15.3 g
same,"Body weight, % of Control",[2]; 8 week,[97.6%]
same,Body weight,[2]; 14 week,303.4 ± 22.6 g
same,"Body weight, % of Control",[2]; 14 week,[102.4%]
same,Body weight,[3]; 8 weeks,185.0 ± 12.2 g
same,"Body weight, % of Control",[3]; 8 weeks,[98.2%]
same,Body weight,[3]; 15 weeks,287.7 ± 14.7 g
same,"Body weight, % of Control",[3]; 15 weeks,[95.7%]
same,Systolic pressure of SHRs,[4]; age 7 W,151.4 ± 9.8 mmHg
same,Systolic pressure of SHRs,[4]; age 8 W,163.6 ± 7.7 mmHg
same,Systolic pressure of SHRs,[4]; age 9 W,165.1 ± 9.2 mmHg
same,Systolic pressure of SHRs,[4]; age 10 W,173.7 ± 12.2 mmHg
same,Systolic pressure of SHRs,[4]; age 11 W,184.4 ± 11.2 mmHg
same,Systolic pressure of SHRs,[4]; age 12 W,188.4 ± 10.7 mmHg
same,Systolic pressure of SHRs,[4]; age 13 W,194.1 ± 10.4 mmHg
same,Systolic pressure of SHRs,[4]; age 14 W,193.8 ± 11.3*^1 mmHg
same,Difference in magnitude of blood pressure elevation vs control group,"[4]; age 14 weeks (week 6 of treatment), p<0.05",about 15 mmHg
same,Systolic pressure of SHRs,[4]; age 15 W,195.2 ± 9.8*^2 mmHg
same,Antihypertensive effect (blood pressure suppression vs control),[4]; end of test period (15 weeks old),approximately 23 mmHg
